Results from patent US9636021B2, “Flavonoid compounds of low toxicity for biological imaging applications” (The University of Akron, priority 2014, dated 2017).

Tests used:
zebrafish embryos = test: toxicity to labeled zebrafish embryos; assay type: in vivo, zebrafish (Danio rerio); settings: morphology and size vs non-labeled control embryos
Text: (§1) The stable and biocompatible staining property of CDCO enables a long-term visualization method for tracking the development and migration of the YSL.

zebrafish vitellogenin = test: interaction between CDCO and zebrafish vitellogenin; assay type: binding
Description: ^1H NMR and ^13C NMR spectra were obtained using an AVANCE II apparatus from Bruker Corporation (Billerica, Mass.). UV-vis spectra were acquired on an 8453 diode-array spectrometer from Hewlett-Packard (Palo Alto, Calif.). Fluorescence spectra were measured by RF-5301 PC spectrometer from Shimadzu Corporation (Kyoto, Japan). Electrospray ionization (ESI) mass spectra were acquired with a Synapt HDMS quadrupole/time-of-flight (Q/ToF) mass spectrometer from Waters Corporation (Milford, Mass.). All the solvents for the fluorescence experiments were analytic grade, which were purchased from Fisher Scientific (Waltham, Mass.) and used without further purification. Bovine serum albumin was purchased from Sigma Aldrich (St. Louis, Mo.). Zebrafish vitellogenin standard was purchased from Cayman Europe Biosense Laboratories (No. V01008301). The fluorescence imaging was obtained by X-Cite™ Series 120Q fluorescence microscope from Lumen Dynamics. For the blue channel filter: excitation 365 nm, beam splitter FT 395 nm, emission 445/50 nm. For the green channel filter: excitation 450-490 nm, beam splitter FT 510 nm, emission 515-565 nm. For the red channel filter: excitation 587/25 nm, beam splitter FT 605 nm, emission 647/70 nm.
Zebrafish embryos at 16 hours post fertilization (hpf) were initially used to study the CDCO's stain ability. […]

[1] = molecular target: T1, bovin serum albumin (BSA) (Bos taurus, UniProt P02769); test: interaction between CDCO and BSA (absorption, fluorescence, warfarin displacement); assay type: binding, bovine
T1 construct: purchased Sigma Aldrich (St. Louis, Mo.)
T1 sequence (P02769 25-607): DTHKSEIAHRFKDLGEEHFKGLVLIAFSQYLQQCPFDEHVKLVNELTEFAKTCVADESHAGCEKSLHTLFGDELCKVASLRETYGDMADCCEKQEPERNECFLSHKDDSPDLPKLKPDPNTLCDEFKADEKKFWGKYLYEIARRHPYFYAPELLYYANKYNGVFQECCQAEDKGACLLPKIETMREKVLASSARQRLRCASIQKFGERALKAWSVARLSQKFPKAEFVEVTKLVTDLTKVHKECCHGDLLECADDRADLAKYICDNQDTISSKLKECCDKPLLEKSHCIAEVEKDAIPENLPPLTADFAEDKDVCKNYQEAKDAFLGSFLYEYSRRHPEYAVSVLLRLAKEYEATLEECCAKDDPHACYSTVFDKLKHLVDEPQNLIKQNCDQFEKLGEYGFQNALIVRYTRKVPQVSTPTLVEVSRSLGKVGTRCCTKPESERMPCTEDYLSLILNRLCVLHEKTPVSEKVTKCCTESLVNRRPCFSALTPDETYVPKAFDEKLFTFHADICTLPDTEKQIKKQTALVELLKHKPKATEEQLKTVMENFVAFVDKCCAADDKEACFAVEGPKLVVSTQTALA
Text: The bovin serum albumin (BSA) as the common protein model was used to investigate the interaction between CDCO and proteins. After addition of one equivalent of BSA, the absorption peak at 385 nm was shifted to 402 nm. With the excitation at 400 nm, the fluorescence intensity of CDCO was enhanced about 2-fold, which was accompanied with a large blue-shift (by about 60 nm) from 560 nm to 500 nm. […] However, when the sample was excited at 570 nm, a red/near-infrared fluorescence peak was detected at 700 nm. In order to determine the location of CDCO on BSA, the displacement of CDCO was carried out by addition of warfarin, which is known to strongly bind to the warfarin binding site in Domain II A of BSA. […] It is believed that the emission at 750 nm might be related to the complicated charge and energy transfer inside dye-BSA complex.

[2] = test system: yolk syncytial layer (YSL) of zebrafish embryos; test: fluorescence staining of zebrafish embryos and larvae; assay type: in vivo, zebrafish (Danio rerio)
Description: Zebrafish embryos at 16 hours post fertilization (hpf) were initially used to study the CDCO's stain ability. A developing zebrafish body is normally covered by chorion and enveloping layer (EVL), which prevent dye molecules permeating into the fish body. In this example, 0.2% DMSO with 10 μM CDCO was infused to the E3 medium to decrease the barrier function of the zebra fish chorion without damaging the fish embryos' structural integrity. […] Thus, it is believed that CDCO selectively stained the YSL region.
To investigate the location of CDCO labeling, zebra fish embryos at nine representative stages of early development were incubated with 10 μM CDCO for 30 minutes at 28.5° C., respectively (FIGS. 3-8). The YSL is initially generated by the collapse/fusion of marginal blastomeres with the yolk cell, and then a thin ring of YSL nuclei forms in front of blastoderm margin at high stage.
The YSL structure can persist on the edge of yolk cell until larval stages. […] This YSL-imaging method can selectively stain the YSL structure from its initial formation, to the dynamic epiboly, and finally to the disappearance of YSL, thus representing a promising tracking agent for zebrafish embryonic development studies.
Wild-type zebrafish embryos were collected and maintained as described in The Zebrafish Book by Monte Westerfield, which is incorporated herein by reference. Zebrafish were kept at 28.5° C. and maintained in E3 embryo medium (15 mM NaCl, 0.5 mM KCl, 1 mM MgSO4, 1 mM CaCl2, 0.15 mM KH2PO4, 0.05 mM Na2HPO4, 0.7 mM NaHCO3, 10^−5% methylene blue; pH 7.5).
For the example represented by FIGS. 1 and 2, 10 μL CDCO stock solution (5 mmol/L CDCO in DMSO) was added into 5 mL E3 medium, then 16 hpf zebra fish embryos were gently transferred to this medium (solution) and incubated at 28.5° C. for 30 min. The dyes which stick to the chorion of the embryos were washed away with E3 medium before imaging by fluorescence microscopy.
For the example represented by FIGS. 3-8, the zebra fish embryos at 2.5 hpf, 4.5 hpf, 6.5 hpf, 7.5 hpf, 8.5 hpf, 11.5 hpf and 16.5 hpf were separately handled following the same procedure.
For the example represented by FIG. 22, the staining time required was 1 hour, since the CDCO was more difficult to penetrate through the older fish skin. Before imaging, the zebrafish were treated with tricaine (anesthetic 0.03%).
All the zebrafish were imaged using fluorescent microscopy (Axio. Vert with X-Cite Series 120Q). The blue-CH filter: excitation 365 nm, beam splitter FT 395 nm, emission 445/50 nm. The green-CH filter: excitation 450-490 nm, beam splitter FT 510 nm, emission 515-565 nm. The red-CH filter: excitation 587/25 nm, beam splitter FT 605 nm, and emission 647/70 nm.)

[3] = test system: yolk syncytial layer (YSL) of zebrafish embryos; test: fluorescence stability and leakage of CDCO in zebrafish embryos; assay type: in vivo, zebrafish (Danio rerio); settings: 5 hpf and 18 hpf embryos, 10 μM 30 min, washed, 1 hour in E3 medium
Description: Stability is one of the most important criteria for developing fluorescent imaging agents for living organisms, especially for tracking highly dynamic structures like the YSL.
as §1
For the example represented by FIGS. 9-12, the 4.5 hpf and 17.5 hpf zebrafish embryos were firstly incubated in an E3 medium containing 10 μM CDCO and 0.2% DMSO for 0.5 h, then were washed with E3 medium, followed by incubating in the E3 medium for 1 hour.

[4] = fluorescence quenching by water; assay type: physicochemical
Text: Upon excitation via photon irradiation, the dipole moment increased dramatically because of the charge transfer from D-A structure in compound 1. An increase in the solvent polarity could relax the excited molecules more efficiently, thus decreasing the energy of the excited state of fluorophore and resulting in a red-shifted emission. […] The fluorescence of compound 1 was nearly 100% quenched by water due to intermolecular electron or proton transfer. Non-fluorescence in water raises the possibility of eliminating the washing process in the protein detection procedure, since the free dye molecules gives negligible background signal in water.

[5] = molecular target: bovine serum albumin (BSA) (Bos taurus, UniProt P02769); test: fluorescence turn-on with BSA in PBS buffer; assay type: binding; settings: for detection limit (10% increase in fluorescence emission) / visual recognizable detection limit (S/N above 3:1): BSA; for F(+)/F(−) fluorescence intensity with BSA / without BSA: BSA 1.0 mg/ml; for F(+)/F(−) fluorescence intensity with BSA / without BSA / λabs(+) / λem(+) / λabs(−) / λem(−): 10 μM dye; for λabs(+) / λem(+): with BSA 1.0 mg/ml; for λabs(−) / λem(−): without BSA
Sequence of bovine serum albumin (BSA) (P02769 25-607): as above
Description: In the aqueous buffer (0.5% DMSO, 10 mM of PBS, pH=7.4), the BSA binding-induced fluorescence turn-on was so large that it could be easily seen by naked eye. […] The intramolecular charge transfer along the D-A conjugated backbone plays a very important role in the environment-sensitivity of the flavone. All the evidence consistently pointed to the flavone dye entering the hydrophobic site of BSA.
Generally, the detection limit can be defined as the analyte concentration at which a 10% increase in fluorescence emission can be measured.
Therefore, the detection limits of compounds 1-6 were 2.6, 0.14, 0.59, 0.09, 14, and 3.4 μg/mL, respectively. For Off/On type fluorescent sensor, the Signal-to-Noise (S/N) ratio above 3:1 is considered reliable for visual evaluation. The visual recognizable detection limits of compounds 1-6 were calculated as 78, 4.2, 17.7, 2.7, 420, and 102 μg/mL, respectively. The reference range for serum albumin concentration in human blood plasma is approximately 35-50 mg/mL. Even in fish, the concentration of serum albumins can reach 0.5-5 mg/mL. The detection limits of the compounds were much lower than serum albumin concentration, indicating the capability for actual blood sample testing.

[6] = absorbance and fluorescence spectra in DMSO; assay type: physicochemical
Text: The absorbance and fluorescence spectra of compounds 1-6 in dimethyl sulfoxide (DMSO) were investigated and the results are in Table 1.

[7] = test system: serum albumin in monkey serum; test: fluorescence response to monkey serum; assay type: binding; settings: 10 μM in 1 mL PBS
Description: FIG. 18 provides a chart of fluorescence spectra changes and of compound 4 (10 μM, in 1 mL of PBS buffer solution) upon addition of different volume of monkey serum;
FIG. 19 provides a chart of fluorescent intensities (λ=505 nm) of compound 4 (10 μM, in 1 mL of PBS buffer solution) upon addition of different volume of monkey serum;
Serum albumin is known as the most abundant protein in blood serum. The probe's fluorescence response to serum albumin in real blood samples would be considered as an ideal sensing tool. In this example, 10 μM of compound 4 was dissolved in 1 mL of PBS buffer as a test solution. […] The detection limit (S/N>3) for monkey serum was calculated as 0.03 μL.

[8] = test system: BSA, human serum albumin (HSA); test: wash-free staining of proteins in SDS-PAGE gel; assay type: binding; settings: BSA, HSA vs fibrinogen, lysozyme, trypsin, 10 μg
Description: (§2) FIG. 20 provides fluorescence images of several proteins in electrophoresis gel stained by compound 4 before and after washing 1. BSA at 0.1 μg; 2. BSA at 1 μg; 3. BSA at 10 μg; 4. BSA at 100 μg; 5. HSA at 10 μg; 6. Fibrinogen at 10 μg; 7. Lysozyme at 10 μg; 8. Trypsin at 10 μg;
(§3) Various proteins were run on the 1-D SDS-PAGE minigels with running buffer (25 mM Tris, 192 mM glycine, 0.1% SDS pH 8.3) under 100 volts for 1.5 hrs. The minigels were then placed in the dye solution (10 mM of compound 4, 0.3% SDS, and AcOH/DMSO/H2O=5:10:85). […] Therefore, the discovered protein-staining reagent had the following advantages: (1) low interference of SDS to fluorescence, thereby eliminating the pretreatment; (2) very weak fluorescent in water and gels to eliminate the need for the washing process; (3) strong interaction with the proteins (serum albumin) to reduce the staining time; (4) a high signal-to-noise (S/N) ratio for the high contrast ratio of images.

[9] = molecular target: BSA, human serum albumin (HSA) (Bos taurus, UniProt P02769); test: wash-free staining of proteins in SDS-PAGE gel; assay type: binding; settings: 2 hours staining, 10 mM dye, 0.3% SDS, no washing
Sequence of BSA, human serum albumin (HSA) (Bos taurus, UniProt P02769) (P02769 25-607): as above
Description: as §2, §3

[10] = embryos at early development stages, 10 μM, 30 minutes, 28.5° C.

SMILES: CN(C)c1ccc(-c2oc3ccccc3c(=O)c2OCc2ccc(CCl)cc2)cc1 [CDCO, 3-(4-(chloromethyl)benzyloxy)-2-(4-(dimethylamino)phenyl)-4H-chromen-4-one]
- toxicity to labeled embryos (zebrafish embryos): almost no apparent toxicity
- red fluorescence with zebrafish vitellogenin (zebrafish vitellogenin): almost no red fluorescence
- effect of warfarin on red fluorescence ([1]; 5-fold excess of warfarin): did not completely quench the red fluorescence
- emission after warfarin displacement ([1]; 5-fold excess of warfarin): 750 nm
- absorption peak ([1]; after addition of one equivalent of BSA): 402 nm
- absorption peak ([1]; before addition of BSA): 385 nm
- fluorescence emission ([1]; excitation 400 nm, before BSA): 560 nm
- blue-shift in fluorescence ([1]; excitation 400 nm, on addition of BSA): about 60 nm
- fluorescence emission ([1]; excitation 400 nm, with one equivalent of BSA): 500 nm
- fluorescence intensity enhancement ([1]; one equivalent of BSA, excitation at 400 nm): about 2 fold
- red/near-infrared fluorescence peak ([1]; with BSA, excited at 570 nm): 700 nm
- staining of 16 hpf zebrafish embryos ([2]; 10 μM, 0.2% DMSO in E3 medium, 30 minutes): stained specifically the yolk-related region in the embryos
- localisation of dye during embryo development [2, 10]: consistently confined to the YSL without significant leakage to the blastoderm
- staining of the yolk cell [2, 10]: barely stained
- fluorescent labeling of 36 hpf embryos ([2]; incubated 1 hour): strong red fluorescence as well as blue and green emission in the yolk region
- fluorescent labeling of 7 days old larval zebrafish ([2]; incubated 1 hour, YSL completely absorbed): almost no red fluorescence was observed
- fluorescence leakage after washing [3]: no significant fluorescence leakage to blastoderm or somite

SMILES: CN(C)c1ccc(-c2oc3ccccc3c(=O)c2O)cc1 [compound 1, 2-(4-(dimethylamino)phenyl)-3-hydroxy-4H-chromen-4-one]
- fluorescence quenched by water [4]: ~100%
- detection limit (10% increase in fluorescence emission) [5]: 2.6 µg/mL
- visual recognizable detection limit (S/N above 3:1) [5]: 78 µg/mL
- F(+)/F(−) fluorescence intensity with BSA / without BSA ([5]; 10 mM PBS, 0.5% DMSO, pH 7.4): 38
- λabs(+) ([5]; 10 mM PBS, 0.5% DMSO, pH 7.4): 416 nm
- λem(+) ([5]; 10 mM PBS, 0.5% DMSO, pH 7.4): 556 nm
- λabs(−) ([5]; 10 mM PBS, 0.5% DMSO, pH 7.4): 403 nm
- λem(−) ([5]; 10 mM PBS, 0.5% DMSO, pH 7.4): 560 nm
- Φ [6]: 10.0%
- λabs [6]: 403 nm

SMILES: COc1c(-c2ccc(N(C)C)cc2)oc2ccc(C)cc2c1=O [compound 4, 2-(4-(dimethylamino)phenyl)-3-methoxy-6-methyl-4H-chromen-4-one]
- detection limit (S/N>3) for monkey serum [7]: 0.03 µL
- fluorescence intensity enhancement at 505 nm ([7]; 25 μL of serum sample): 135 fold
- selectivity of protein staining in gel [8]: serum albumin proteins were selectively stained
- amount of BSA clearly observed in gel under a UV lamp [9]: ~1 µg
- detection limit (10% increase in fluorescence emission) [5]: 0.09 µg/mL
- visual recognizable detection limit (S/N above 3:1) [5]: 2.7 µg/mL
- F(+)/F(−) fluorescence intensity with BSA / without BSA ([5]; 10 mM PBS, 0.5% DMSO, pH 7.4): 1100
- fluorescence in the absence of BSA ([5]; aqueous buffer, 0.5% DMSO, 10 mM PBS, pH 7.4): almost no fluorescence
- λabs(+) ([5]; 10 mM PBS, 0.5% DMSO, pH 7.4): 398 nm
- λem(+) ([5]; 10 mM PBS, 0.5% DMSO, pH 7.4): 484 nm
- λabs(−) ([5]; 10 mM PBS, 0.5% DMSO, pH 7.4): 398 nm
- λem(−) ([5]; 10 mM PBS, 0.5% DMSO, pH 7.4): 490 nm
- Φ [6]: 37.6%
- λabs [6]: 390 nm
- λem [6]: 504 nm
